Source: ChEMBL document CHEMBL1137221, “Validation of model of cytochrome P450 2D6: an in silico tool for predicting metabolism and inhibition” (J Med Chem, 2004)
pIC50, pKi: −log10 of the molar value.

biological target: T1, Cytochrome P450 2D6 (Homo sapiens, UniProt P10635); assay: Binding affinity for cytochrome P450 2D6; type: ADME
T1 sequence (P10635 whole entry): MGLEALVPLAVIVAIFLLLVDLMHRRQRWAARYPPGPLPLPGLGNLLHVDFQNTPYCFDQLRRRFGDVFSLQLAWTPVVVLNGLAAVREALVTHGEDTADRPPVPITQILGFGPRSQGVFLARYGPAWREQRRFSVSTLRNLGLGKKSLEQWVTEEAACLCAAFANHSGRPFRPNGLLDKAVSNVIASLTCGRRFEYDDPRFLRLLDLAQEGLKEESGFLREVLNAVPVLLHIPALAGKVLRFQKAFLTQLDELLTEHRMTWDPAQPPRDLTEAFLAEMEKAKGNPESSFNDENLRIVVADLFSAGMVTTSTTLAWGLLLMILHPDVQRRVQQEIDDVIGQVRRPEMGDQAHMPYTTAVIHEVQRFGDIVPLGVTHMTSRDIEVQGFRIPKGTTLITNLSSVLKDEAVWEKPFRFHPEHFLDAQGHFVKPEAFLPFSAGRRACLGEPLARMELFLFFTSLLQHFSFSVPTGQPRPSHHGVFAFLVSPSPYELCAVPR

SMILES	pKi
C=C[C@H]1C[N@@]2CC[C@H]1C[C@@H]2[C@@H](O)c1ccnc2ccccc12 [CINCHONINE]	4.68

biological target: T1, Cytochrome P450 2D6; assay: Inhibitory concentration against cytochrome P450 2D6

SMILES	pIC50
NS(=O)(=O)OCCCCCCCOS(N)(=O)=O	3.16
O=C1CC2(CCCCC2)C(=O)C1CC(Cl)CCl (configuration not stated)	3.51
COC12[C@H](COC(N)=O)C3=C(C(O)=C(C)C(=N)C3=O)N1C[C@H]1[C@@H]2N1C (some centres not stated)	4.03
COc1ccc2c(c1[N+](=O)[O-])CC[C@@H]1[C@@H]2CC[C@]2(C)C(=O)CC[C@@H]12	3.71
COC(=O)C12OC[C@]34[C@H]([C@@H](O)[C@@H]1O)[C@@]1(C)CC(=O)C(O)=C(C)[C@@H]1C[C@H]3OC(=O)[C@H](OC(=O)/C=C(\C)C(C)C)[C@@H]24 (single isomer, unassigned) [BRUCEANTIN]	3.29
CC(=O)N(C)c1ccc(Nc2cc(C)nc3ccc4[nH]cnc4c23)cc1 [ACODAZOLE]	4.74
CN(C)CCN1C(=O)c2cccc3cc(N)cc(c23)C1=O [AMONAFIDE]	4.40
O=C(O)CCCc1ccc(N(CCCl)CCCl)cc1 [CHLORAMBUCIL]	4.19
C=C[C@H]1C[N@@]2CC[C@H]1C[C@@H]2[C@@H](O)c1ccnc2ccccc12 [CINCHONINE]	5.74
Nc1ccc2c(c1)CN1C(=O)c3ccccc3C1=N2 [DANIQUIDONE]	4.32

Further lines, results first:

pIC50	SMILES
3.24	O=C(O)c1ccc(CNCc2ccccc2)cc1
3.63	NCCCc1c(-c2ccccc2)nc(N)[nH]c1=O
2.99	O=C(Cn1ccnc1[N+](=O)[O-])N(CCO)CCO
3.54	COc1ccc(S(=O)(=O)N/N=C/C(=O)O)cc1
5.68	Clc1ccc(Cl)c(SCCCN2CCNCC2)c1
5.14	CN(C)CCOc1ccc(/C(=C/c2ccccc2)c2ccccc2)cc1
4.96	CC(C)NC(=O)OCc1c(COC(=O)NC(C)C)c(-c2ccc(Cl)c(Cl)c2)n2c1CCC2
2.69	O=CC(NC(=O)N(CCCl)N=O)C(O)C(O)C(O)CO (configuration not stated)
5.10	NCC(O)CSCc1ccc(Cl)cc1 (configuration not stated)
5.82	CCN(CC)CCNc1ccc(CO)c2sc3ccccc3c(=O)c12 [HYCANTHONE]
5.59	CNCCC=C1c2ccccc2CCc2ccccc21 [NORTRIPTYLINE]
